Laboratory results as given in patent US20260053811A1, “METHODS OF TREATING HYPERTENSION IN OBESE SUBJECTS” (Mineralys Therapeutics, Inc., priority 2022, published 2026).

Test system: hypertensive subjects
Experiment: Seated automated office blood pressure (AOBP) in randomized, placebo-controlled, dose-ranging study
Type: in vivo, human
Conditions: 100 mg QD, FAS; for Seated AOBP DBP change from baseline (CFB), Mean / Seated AOBP DBP, Mean / Seated AOBP SBP change from baseline (CFB), Mean / Seated AOBP SBP, Mean: Part 2
Procedure: A randomized, double-blinded, placebo-controlled, dose-ranging, multicenter study was conducted to evaluate the effect of orally administered Compound A HBr on blood pressure for the treatment of hypertension in male and female subjects ≥18 years of age.
The study consists of two parts. For enrollment into Part 1 of the study, a subject's value of plasma renin activity (PRA) must be ≤1 ng/mL/h based on morning measurement. If the value of PRA >1 ng/mL/h based on morning measurement, then subjects may be eligible to enter Part 2 of the study.
For Part 1, 163 enrolled subjects ≥18 years of age were randomized into 6 equal treatment groups (1:1:1:1:1:1) to 12.5 mg BID, 25 mg BID, 12.5 mg QD, 50 mg QD, 100 mg QD, or placebo. After a review of interim clinical data, the 2 lowest dose levels (12.5 mg QD and 12.5 mg BID) were stopped for future randomization due to a lack of consistent meaningful reduction of blood pressure, but the patients randomized to that point remained in the study through completion. Thus, after the review of interim clinical data, subjects were randomized into 4 equal treatment groups (1:1:1:1) to 25 mg BID, 50 mg QD, 100 mg QD, or placebo.
For Part 2, 36 enrolled subjects ≥18 years of age were randomized (5:1) to either 100 mg QD Compound A HBr or placebo such that the Compound A HBr treatment group consisted of approximately 30 subjects and the placebo treatment group will consist of approximately 6 subjects.
Subjects orally administered the assigned study drug (Compound A HBr or placebo) according to the assigned dosing regimen for 8 weeks beginning on Study Day 1. All subjects in Part 1 (regardless of dosing group) received BID dosing to preserve the integrity of the blind; active drug is administered as the morning dose for all QD dose groups. Subjects returned to the research facility or were seen by the clinical investigator or approved home health care professional at the end of Study Weeks 1, 2, 3, 4, 5, 6, 7, and 8 (±2 days) for protocol-defined efficacy and safety assessments and procedures, assessment of adverse events (AEs), and confirmation of compliance with study drug usage. Subjects also completed a telephone visit and blood pressure (BP) check at home approximately 3 days post last dose of study drug. Subjects attended up to 14 full clinic visits, including a pre-Screening visit, a Screening/start of Placebo Run-in visit, a second visit during Placebo Run-in, a clinic visit to initiate the ABPM procedure, a Randomization visit, 8 weekly visits during double-blind treatment, and an end-of-study visit scheduled 4 weeks after the last study treatment for final efficacy and safety assessments.
An automated oscillometric sphygmomanometer device was used to measure the subjects' systolic and diastolic blood pressure in office after approximately 5 minutes of rest in the seated position.
The primary endpoint is the change in office-measured (mean of last 2 of 5 unattended measurements using an automated oscillometric sphygmomanometer device after approximately 5 minutes of rest in the seated position) systolic blood pressure (SBP) from baseline to the end of Study Week 8.
Secondary endpoints of this study were: • (a) Change in 24-hour ambulatory blood pressure monitoring (ABPM) parameters (systolic and diastolic) from baseline to the end of Study Week 7. • (b) Change in office-measured SBP from baseline to the end of Study Weeks 1, 2, 3, 4, 5, 6, and 7. • (c) Change in office-measured diastolic blood pressure (DBP) from baseline to the end of Study Weeks 1, 2, 3, 4, 5, 6, 7, and 8. • (d) Proportion of subjects who achieve office-measured BP of ≤130/80 mm Hg by the end of Study Week 8.

CC(=O)N[C@H]1CC[C@H](NC(=O)CN2CCN(c3nncc(-c4ccc(C)cc4)n3)CC2)CC1 [Compound A HBr]
Seated AOBP DBP change from baseline (CFB), Mean (SD) (Week 4, Part 1): −6.36 (6.75) mmHg
Seated AOBP DBP, Mean (SD) (Week 4, Part 1): 71.60 (8.62) mmHg
Seated AOBP SBP change from baseline (CFB), Mean (SD) (Week 4, Part 1): −14.60 (11.66) mmHg
Seated AOBP SBP, Mean (SD) (Week 4, Part 1): 129.76 (12.66) mmHg
Seated AOBP DBP change from baseline (CFB), Mean (Week 4): −6.92 mmHg
Seated AOBP DBP, Mean (Week 4): 71.36 mmHg
Seated AOBP SBP change from baseline (CFB), Mean (Week 4): −16.04 mmHg
Seated AOBP SBP, Mean (Week 4): 125.44 mmHg
Seated AOBP DBP change from baseline (CFB), Mean (SD) (Week 5, Part 1): −5.36 (8.12) mmHg
Seated AOBP DBP, Mean (SD) (Week 5, Part 1): 72.60 (11.27) mmHg
Seated AOBP SBP change from baseline (CFB), Mean (SD) (Week 5, Part 1): −13.40 (16.59) mmHg
Seated AOBP SBP, Mean (SD) (Week 5, Part 1): 130.96 (14.84) mmHg
Seated AOBP DBP change from baseline (CFB), Mean (Week 5): −6.35 mmHg
Seated AOBP DBP, Mean (Week 5): 71.31 mmHg
Seated AOBP SBP change from baseline (CFB), Mean (Week 5): −12.87 mmHg
Seated AOBP SBP, Mean (Week 5): 127.92 mmHg
Seated AOBP DBP change from baseline (CFB), Mean (SD) (Week 6, Part 1): −3.33 (7.96) mmHg
Seated AOBP DBP, Mean (SD) (Week 6, Part 1): 74.77 (10.12) mmHg
Seated AOBP SBP change from baseline (CFB), Mean (SD) (Week 6, Part 1): −6.62 (15.69) mmHg
Seated AOBP SBP, Mean (SD) (Week 6, Part 1): 138.73 (14.13) mmHg
Seated AOBP DBP change from baseline (CFB), Mean (Week 6): −7.25 mmHg
Seated AOBP DBP, Mean (Week 6): 70.65 mmHg
Seated AOBP SBP change from baseline (CFB), Mean (Week 6): −13.29 mmHg
Seated AOBP SBP, Mean (Week 6): 127.58 mmHg
Seated AOBP DBP change from baseline (CFB), Mean (SD) (Week 7, Part 1): −4.12 (8.55) mmHg
Seated AOBP DBP, Mean (SD) (Week 7, Part 1): 73.48 (11.08) mmHg
Seated AOBP SBP change from baseline (CFB), Mean (SD) (Week 7, Part 1): −11.04 (16.75) mmHg
Seated AOBP SBP, Mean (SD) (Week 7, Part 1): 134.32 (18.32) mmHg
Seated AOBP DBP change from baseline (CFB), Mean (Week 7): −6.13 mmHg
Seated AOBP DBP, Mean (Week 7): 71.61 mmHg
Seated AOBP SBP change from baseline (CFB), Mean (Week 7): −11.66 mmHg
Seated AOBP SBP, Mean (Week 7): 128.75 mmHg
LSM Δ from Placebo, change from baseline in seated AOBP SBP (MMRM) (Week 8, Part 1): −7.81 mmHg
LSM Δ with Placebo, seated AOBP DBP (MMRM) (Week 8, Part 1): −4.11 mmHg
Modelled (MMRM) LSM (SEM) change from baseline, seated AOBP DBP (Week 8, Part 1): −5.75 (1.77) mmHg
Modelled (MMRM) LSM (SEM) change from baseline, seated AOBP SBP (Week 8, Part 1): −11.92 (2.77) mmHg
Seated AOBP DBP change from baseline (CFB), Mean (SD) (Week 8, Part 1): −5.46 (7.85) mmHg
Seated AOBP DBP, Mean (SD) (Week 8, Part 1): 73.00 (9.43) mmHg
Seated AOBP SBP change from baseline (CFB), Mean (SD) (Week 8, Part 1): −14.08 (13.26) mmHg
Seated AOBP SBP, Mean (SD) (Week 8, Part 1): 131.28 (14.13) mmHg
Subjects with seated AOBP SBP/DBP ≤130/80 mmHg: No (Week 8, Part 1): 21 (70.0) n (%)
Subjects with seated AOBP SBP/DBP ≤130/80 mmHg: Yes (Week 8, Part 1): 9 (30.0) n (%)
Seated AOBP DBP change from baseline (CFB), Mean (Week 8): −5.68 mmHg
Seated AOBP DBP, Mean (Week 8): 72.17 mmHg
Seated AOBP SBP change from baseline (CFB), Mean (Week 8): −11.20 mmHg
Seated AOBP SBP, Mean (Week 8): 129.30 mmHg
